Results: ChEMBL document CHEMBL4373684, “Synthesis of new lophine-carbohydrate hybrids as cholinesterase inhibitors: cytotoxicity evaluation and molecular modeling” (Medchemcomm, 2019)
Blank lines part the entries; values can stand above or below the compound they belong to.

Columns and labels:
in vitro [1] = conditions: PAMPA
Description: Fraction absorbed of the compound by PAMPA

Acetylcholinesterase = target: T1, Acetylcholinesterase (Mus musculus, UniProt P21836); assay: Inhibition of AChE in Swiss mouse brain using acetylthiocholine iodide as substrate incubated for 10 mins followed by substrate addition and measured after 10 mins; type: tissue-based
T1 sequence (P21836 whole entry): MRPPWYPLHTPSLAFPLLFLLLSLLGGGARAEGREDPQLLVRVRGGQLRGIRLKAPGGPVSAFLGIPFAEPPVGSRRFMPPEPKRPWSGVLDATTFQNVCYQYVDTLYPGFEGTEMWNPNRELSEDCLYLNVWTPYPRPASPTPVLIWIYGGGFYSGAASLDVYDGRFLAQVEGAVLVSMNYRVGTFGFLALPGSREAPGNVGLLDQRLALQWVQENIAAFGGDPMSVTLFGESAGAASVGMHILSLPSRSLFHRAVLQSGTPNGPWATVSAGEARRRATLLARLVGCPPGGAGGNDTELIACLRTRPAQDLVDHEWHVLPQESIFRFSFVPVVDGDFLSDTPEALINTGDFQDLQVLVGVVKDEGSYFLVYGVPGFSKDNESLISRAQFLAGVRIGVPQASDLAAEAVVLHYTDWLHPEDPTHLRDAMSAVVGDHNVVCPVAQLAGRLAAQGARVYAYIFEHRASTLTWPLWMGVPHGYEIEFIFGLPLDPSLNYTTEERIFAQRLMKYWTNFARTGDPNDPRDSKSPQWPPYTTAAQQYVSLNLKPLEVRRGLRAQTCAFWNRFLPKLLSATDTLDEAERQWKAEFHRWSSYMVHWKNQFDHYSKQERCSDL

Cholinesterase = Cholinesterase (Mus musculus, UniProt Q03311)
Description: Inhibition of BuChE in Swiss mouse serum using butyrylthiocholine iodide as substrate incubated for 10 mins followed by substrate addition and measured after 10 mins

in vitro [2] = conditions: PAMPA; remark: listed apart in the source
Description: Effective permeability of compound incubated for 8 hrs by PAMPA

[3] = Selectivity index, ratio of IC50 for rat C6 cells to IC50 for inhibition of BuChE in Swiss mouse serum
[4] = Selectivity index, ratio of IC50 for human HepG2 cells to IC50 for inhibition of AChE in Swiss mouse brain
HepG2 = assay: cells; conditions: Homo sapiens, HepG2, 24 h
Description: Cytotoxicity against human HepG2 cells assessed as reduction in cell viability incubated for 24 hrs by MTT assay

[5] = Selectivity index, ratio of IC50 for human HepG2 cells to IC50 for inhibition of BuChE in Swiss mouse serum
[6] = Selectivity index, ratio of IC50 for monkey Vero cells to IC50 for inhibition of BuChE in Swiss mouse serum
Vero = assay: cells; conditions: Chlorocebus sabaeus, 24 h
Description: Cytotoxicity against monkey Vero cells assessed as reduction in cell viability incubated for 24 hrs by MTT assay

[7] = Selectivity index, ratio of IC50 for rat C6 cells to IC50 for inhibition of AChE in Swiss mouse brain
[8] = Selectivity index, ratio of IC50 for monkey Vero cells to IC50 for inhibition of AChE in Swiss mouse brain
C6 = assay: cells; conditions: Rattus norvegicus, C6, 24 h
Description: Cytotoxicity against rat C6 cells assessed as reduction in cell viability incubated for 24 hrs by MTT assay

Sequence of Cholinesterase (Q03311 whole entry): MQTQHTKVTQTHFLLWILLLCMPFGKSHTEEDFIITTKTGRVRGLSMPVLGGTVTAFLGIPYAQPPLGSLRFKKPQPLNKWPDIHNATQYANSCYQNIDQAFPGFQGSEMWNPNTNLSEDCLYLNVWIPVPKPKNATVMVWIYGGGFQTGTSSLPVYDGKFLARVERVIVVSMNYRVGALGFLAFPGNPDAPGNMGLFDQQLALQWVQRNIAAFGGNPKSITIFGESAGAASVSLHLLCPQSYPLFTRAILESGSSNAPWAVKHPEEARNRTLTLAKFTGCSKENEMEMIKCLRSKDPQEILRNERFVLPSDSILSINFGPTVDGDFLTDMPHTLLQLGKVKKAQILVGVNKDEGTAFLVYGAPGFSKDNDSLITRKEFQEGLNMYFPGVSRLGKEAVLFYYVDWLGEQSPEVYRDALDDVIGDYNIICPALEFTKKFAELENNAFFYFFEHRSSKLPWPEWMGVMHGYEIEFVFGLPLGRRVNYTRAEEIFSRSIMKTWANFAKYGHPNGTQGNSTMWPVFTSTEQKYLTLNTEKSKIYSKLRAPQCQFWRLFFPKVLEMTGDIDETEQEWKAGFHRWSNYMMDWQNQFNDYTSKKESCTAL

- Fa (in vitro [1]): 87.3%
SMILES: CNC(=C[N+](=O)[O-])NCCSCc1ccc(CN(C)C)o1 [RANITIDINE]

SMILES: CC1(C)O[C@H]2O[C@H](CNCCCCn3c(-c4ccccc4)nc(-c4ccccc4)c3-c3ccccc3)[C@H](O)[C@H]2O1
- IC50 (Acetylcholinesterase): > 10 µM
- IC50 (Cholinesterase): 0.3 µM

SMILES: CO[C@@H]1O[C@H](CNCCCCCCCn2c(-c3ccccc3)nc(-c3ccccc3)c2-c2ccccc2)[C@H]2OC(C)(C)O[C@@H]12
- Papp at 8 h (in vitro [2]): 22.8 nm/s
- Ratio IC50 [3]: 500
- IC50 (Acetylcholinesterase): 2.75 µM
- Ratio IC50 [4]: 90
- IC50 (HepG2): > 250 µM
- Ratio IC50 [5]: 500
- Ratio IC50 [6]: 500
- IC50 (Vero): > 250 µM
- IC50 (Cholinesterase): 0.5 µM
- Ratio IC50 [7]: 90
- Ratio IC50 [8]: 90
- IC50 (C6): > 250 µM
- Fa (in vitro [1]): 20.4%

SMILES: c1ccc(-c2nc(-c3ccccc3)c(-c3ccccc3)[nH]2)cc1
- IC50 (Acetylcholinesterase): > 10 µM
- IC50 (Cholinesterase): > 10 µM

SMILES: CC1(C)O[C@H]2[C@@H](O1)[C@@H](CNCCCCCCn1c(-c3ccccc3)nc(-c3ccccc3)c1-c1ccccc1)O[C@@H]1OC(C)(C)O[C@@H]12
- Papp at 8 h (in vitro [2]): 5.4 nm/s
- IC50 (Acetylcholinesterase): > 10 µM
- IC50 (HepG2): > 250 µM
- IC50 (Vero): > 250 µM
- IC50 (Cholinesterase): 0.17 µM
- IC50 (C6): > 250 µM
- Fa (in vitro [1]): 5.9%

- Papp at 8 h (in vitro [2]): 3.8 nm/s
- Fa (in vitro [1]): 99.2%
SMILES: CO/N=C(\C(=O)N[C@@H]1C(=O)N2C(C(=O)O)=C(CSc3nc(=O)c(=O)[nH]n3C)CS[C@H]12)c1csc(N)n1 [CEFTRIAXONE]

- Papp at 8 h (in vitro [2]): 262 nm/s
- Fa (in vitro [1]): 87.9%
SMILES: O=c1ccc2ccccc2o1 [COUMARIN]

SMILES: CC1(C)O[C@H]2O[C@H](CNCCCCCn3c(-c4ccccc4)nc(-c4ccccc4)c3-c3ccccc3)[C@H](O)[C@H]2O1
- IC50 (Acetylcholinesterase): > 10 µM
- IC50 (HepG2): 116 µM
- IC50 (Vero): 115 µM
- IC50 (Cholinesterase): 0.28 µM
- IC50 (C6): > 250 µM

SMILES: CC1(C)O[C@H]2O[C@H](CNCCCCCCCCn3c(-c4ccccc4)nc(-c4ccccc4)c3-c3ccccc3)[C@H](O)[C@H]2O1
- IC50 (Acetylcholinesterase): > 10 µM
- IC50 (Cholinesterase): 1.3 µM

- Fa (in vitro [1]): 23.5%
SMILES: CCn1cc(C(=O)O)c(=O)c2cc(F)c(N3CCNCC3)cc21 [NORFLOXACIN]

- Fa (in vitro [1]): 100%
SMILES: CC(C)NCC(O)COc1ccc(CC(N)=O)cc1 (centres undefined) [ATENOLOL]

SMILES: CC1(C)O[C@H]2O[C@H](CNCCCCCCn3c(-c4ccccc4)nc(-c4ccccc4)c3-c3ccccc3)[C@H](O)[C@H]2O1
- IC50 (Acetylcholinesterase): > 10 µM
- IC50 (Cholinesterase): 0.71 µM

SMILES: CC1(C)O[C@H]2O[C@H](CNCCCCCCCn3c(-c4ccccc4)nc(-c4ccccc4)c3-c3ccccc3)[C@H](O)[C@H]2O1
- IC50 (Acetylcholinesterase): > 10 µM
- IC50 (Cholinesterase): 0.4 µM

SMILES: CC1(C)O[C@H]2[C@@H](O1)[C@@H](CNCCCCCCCn1c(-c3ccccc3)nc(-c3ccccc3)c1-c1ccccc1)O[C@@H]1OC(C)(C)O[C@@H]12
- Ratio IC50 [3]: 1400
- IC50 (Acetylcholinesterase): > 10 µM
- Ratio IC50 [5]: 1400
- Ratio IC50 [6]: 1400
- IC50 (Cholinesterase): 0.62 µM

SMILES: CO[C@@H]1O[C@H](CNCCCCCCn2c(-c3ccccc3)nc(-c3ccccc3)c2-c2ccccc2)[C@H]2OC(C)(C)O[C@@H]12
- IC50 (Acetylcholinesterase): > 10 µM
- IC50 (Cholinesterase): 0.4 µM
